Molecules are shown by their SMILES. In brackets after ≈: the same amount, converted by molar mass.

A short description of data set [1]: Solubility study of crystal forms (aqueous HCl pH 1 / 20 mM phosphate buffer pH about 7, HPLC analysis). In kind it is physicochemical. The protocol:
The detailed parameters were as follows:
An aqueous HCl solution at pH 1 was prepared. […] After dissolution by stirring, the solution was adjusted to pH = 1 with 1 N NaOH or 1 N HCl. The timing was started, and after T = 3 h, the pH was measured. […] When T = 4 h, the dissolution status was observed, and a dilution factor was selected according to the dissolution status. 50% ACN was used as a diluent for HPLC analysis. When T = 24 h, the dissolution state was observed. With reference to the concentration data at 4 h and the dissolution state at 24 h, a dilution factor was selected, and HPLC analysis was performed. The solubility was calculated according to the HPLC analysis results described above.
The aqueous HCl solution at pH 1 in the step described above was replaced with a 20 mM phosphate buffer solution at pH of about 7, and the steps described above were repeated. The solubility was calculated.

Data set [2] in a line: Stability study of crystal forms (crystal form status by XRPD after storage). In kind it is physicochemical. The conditions noted are these: 14 days. How it is done:
Test method: The sample was prepared on a zero-background silicon wafer by gently pressing to obtain a flat surface. About 10-20 mg of a sample was used for XRPD analysis.

What is called solubility is the concentration that dissolves in the medium under given conditions. A lower solubility goes with a poorly soluble substance. Consider `COC(=O)[C@H](c1ccccc1Cl)N1CC[C@@H](SCOC(=O)OC(C)C)/C(=C\C(=O)O)C1` [Crystal form F1], for which the solubility at 4 h turned out to be 9.89 mg/mL (≈ 21 mM) in data set [1] (20 mm phosphate buffer, pH=7, 4 h) and 11.5 mg/mL (≈ 24.4 mM) in data set [1] (aqueous hcl, pH=1, 4 h). The solubility at 24 h stood at 6.14 mg/mL (≈ 13 mM) in data set [1] (20 mm phosphate buffer, pH=7, 24 h) and 11.4 mg/mL (≈ 24.1 mM) in data set [1] (aqueous hcl, pH=1, 24 h). Besides, the Dissolution status result in data set [1] (pH=1, 4 h) is “Clear solution”; in data set [1] (pH=1, 24 h) it was “Clear solution”; in data set [1] (pH=7, 4 h), “Clear solution”; in data set [1] (pH=7, 24 h) it was “Clear solution”. Moreover, the “Crystal form after treatment” value was “Crystal form F1” in data set [2] (25 °C/60% RH, open container); “Crystal form F1” in data set [2] (Sealed container at 2-8 °C); “Crystal form F1” in data set [2] (Sealed container at 40 °C); “Crystal form F1” in data set [2] (Sealed container at 60 °C).

The values are drawn from patent EP4813972A1, “CRYSTAL FORM OF BENZENE SULFONATE CONTAINING PIPERIDINE RING COMPOUND, AND PREPARATION METHOD THEREFOR AND USE THEREOF” (Shanghai Curegene Pharmaceutical Co., Ltd., priority 2023, dated 2025).
